Assays:
[1] = tested on: COLO205 colon adenocarcinoma cells (B-Raf V600E mutation); assay: COLO205 cell growth inhibition (ATPlite); type: cell-based; conditions: Homo sapiens, COLO 205, 72 h, 3 days
Procedure, shortened: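 Cells treated for 3 days at 37 °C, 5% CO2 with an 8-point 1:3 dilution series, top final concentration 10 μM, DMSO control. ATPlite luminescence used as a measure of cell number; IC50 from reading versus concentration.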

B-Raf V600E = B-Raf V600E (Homo sapiens (Human), UniProt P15056, V600E); assay: B-Raf V600E kinase biochemical activity assay (AlphaScreen, biotin-MEK1 substrate); conditions: 100 μM ATP
Chain of B-Raf V600E (P15056 whole entry V600E): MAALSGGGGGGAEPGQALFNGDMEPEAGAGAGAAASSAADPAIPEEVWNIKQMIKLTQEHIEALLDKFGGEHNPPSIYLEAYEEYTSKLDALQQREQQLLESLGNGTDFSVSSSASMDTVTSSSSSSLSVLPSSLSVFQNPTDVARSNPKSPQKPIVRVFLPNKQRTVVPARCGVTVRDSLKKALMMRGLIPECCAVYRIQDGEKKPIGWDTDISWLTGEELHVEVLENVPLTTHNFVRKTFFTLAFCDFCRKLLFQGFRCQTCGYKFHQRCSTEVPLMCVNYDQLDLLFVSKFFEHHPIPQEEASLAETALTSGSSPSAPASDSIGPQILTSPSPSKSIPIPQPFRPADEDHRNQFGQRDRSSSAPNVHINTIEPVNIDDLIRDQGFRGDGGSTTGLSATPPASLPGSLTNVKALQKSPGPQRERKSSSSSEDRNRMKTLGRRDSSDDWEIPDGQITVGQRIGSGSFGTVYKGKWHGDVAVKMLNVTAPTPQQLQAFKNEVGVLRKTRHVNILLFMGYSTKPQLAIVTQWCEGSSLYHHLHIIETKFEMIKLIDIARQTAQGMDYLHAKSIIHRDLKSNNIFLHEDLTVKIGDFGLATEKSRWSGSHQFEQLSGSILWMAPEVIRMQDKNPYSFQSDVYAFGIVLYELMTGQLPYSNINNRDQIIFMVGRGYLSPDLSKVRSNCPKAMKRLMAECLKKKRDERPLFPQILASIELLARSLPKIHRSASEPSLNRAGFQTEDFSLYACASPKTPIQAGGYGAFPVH
Procedure, shortened: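 IC50 was derived from AlphaScreen signal (anti-phospho-MEK1/2 antibody with streptavidin donor and Protein A acceptor beads, 3 h) across 8 compound concentrations. The kinase step ran 45 min at room temperature: 0.1 ng B-Raf V600E, 100 nM biotin-MEK1, 100 μM final ATP, pH 7.0 HEPES with MgCl2/MnCl2.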

IC50 [1] | IC50 (B-Raf V600E) | Compound
< 1 µM | < 0.1 µM | CCN(C)S(=O)(=O)Nc1ccc(F)c(C(=O)c2c[nH]c3ncc(-c4ccc(C5(O)CC5)cc4)cc23)c1F [Compound P-0314, 3-[3-1[[ethyl(methyl)sulfamoyl]amino]-2,6-difluoro-benzoyl]-5-[4-(1-hydroxycyclopropyl)phenyl]-1H-pyrrolo[2,3-b]pyridine]
< 1 µM | < 0.1 µM | CN(CC(F)(F)F)S(=O)(=O)Nc1ccc(F)c(C(=O)c2c[nH]c3ncc(-c4cnc(C5CC5)nc4)cc23)c1F [Compound P-0340, 5-(2-cyclopropylpyrimidin-5-yl)-3-[2,6-difluoro-3-[[methyl(2,2,2-trifluoroethyl)sulfamoyl]amino]benzoyl]-1H-pyrrolo[2,3-b]pyridine]
< 1 µM | < 0.1 µM | O=C(c1c(F)ccc(NS(=O)(=O)N2CCC(F)C2)c1F)c1c[nH]c2ncc(-c3cnc(C4CC4)nc3)cc12 (stereo not drawn) [Compound P-0339, N-[3-[5-(2-cyclopropylpyrimidin-5-yl)-1H-pyrrolo[2,3-b]pyridine-3-carbonyl]-2,4-difluoro-phenyl]-3-fluoro-pyrrolidine-1-sulfonamide]
> 1 µM | < 0.1 µM | COc1ccnc(-c2cnc3[nH]cc(C(=O)c4cccc(NS(=O)(=O)N5CCCC5)c4F)c3c2)n1 [Compound P-0325, N-[2-fluoro-3-[5-(4-methoxypyrimidin-2-yl)-1H-pyrrolo[2,3-b]pyridine-3-carbonyl]phenyl]pyrrolidine-1-sulfonamide]
< 1 µM | < 0.1 µM | O=C(c1c(F)ccc(NS(=O)(=O)N2CCCC2)c1F)c1c[nH]c2ncc(-c3cc(N4CCOCC4)ncn3)cc12 [Compound P-0318, N-[2,4-difluoro-3-[5-(6-morpholinopyrimidin-4-yl)-1H-pyrrolo[2,3-b]pyridine-3-carbonyl]phenyl]pyrrolidine-1-sulfonamide]
< 1 µM | < 0.1 µM | CCN(C)S(=O)(=O)Nc1ccc(F)c(C(=O)c2c[nH]c3ncc(-c4ccc5nc(N(C)C)ncc5c4)cc23)c1F [Compound P-0313, 2-(dimethylamino)-6-[3-[3-1[[ethyl(methyl)sulfamoyl]amino]-2,6-difluoro-benzoyl]-1H-pyrrolo[2,3-b]pyridin-5-yl]quinazoline]
> 1 µM | < 0.1 µM | Nc1cc(-c2cnc3[nH]cc(C(=O)c4cccc(NS(=O)(=O)N5CCCC5)c4F)c3c2)ncn1 [Compound P-0299, N-[3-[5-(6-aminopyrimidin-4-yl)-1H-pyrrolo[2,3-b]pyridine-3-carbonyl]-2-fluoro-phenyl]pyrrolidine-1-sulfonamide]
< 1 µM | < 0.1 µM | O=C(c1cccc(NS(=O)(=O)N2CCCC2)c1F)c1c[nH]c2ncc(-c3cc(N4CCOCC4)ncn3)cc12 [Compound P-0321, N-[2-fluoro-3-[5-(6-morpholinopyrimidin-4-yl)-1H-pyrrolo[2,3-b]pyridine-3-carbonyl]phenyl]pyrrolidine-1-sulfonamide]
< 1 µM | < 0.1 µM | CCN(C)S(=O)(=O)Nc1ccc(F)c(C(=O)c2c[nH]c3ncc(-c4cccc(N5CCOCC5)c4)cc23)c1F [Compound P-0259, 4-[3-[3-[3-[[ethyl(methyl)sulfamoyl]amino]-2,6-difluoro-benzoyl]-1H-pyrrolo[2,3-b]pyridin-5-yl]phenyl]morpholine]
< 1 µM | < 0.1 µM | O=C(c1c(F)ccc(NS(=O)(=O)N2CCCC2)c1F)c1c[nH]c2ncc(-c3ccnc(N4CCOCC4)n3)cc12 [Compound P-0282, N-[2,4-difluoro-3-[5-(2-morpholinopyrimidin-4-yl)-1H-pyrrolo[2,3-b]pyridine-3-carbonyl]phenyl]pyrrolidine-1-sulfonamide]
< 1 µM | < 0.1 µM | O=C(c1cccc(NS(=O)(=O)N2CCCC2)c1F)c1c[nH]c2ncc(-c3ccncc3)cc12 [Compound P-0281, N-[2-fluoro-3-[5-(4-pyridyl)-1H-pyrrolo[2,3-b]pyridine-3-carbonyl]phenyl]pyrrolidine-1-sulfonamide]
< 1 µM | < 0.1 µM | CCN(C)S(=O)(=O)Nc1ccc(F)c(C(=O)c2c[nH]c3ncc(-c4ccnc(F)c4)cc23)c1F [Compound P-0283, 3-[3-[[ethyl(methyl)sulfamoyl]amino]-2,6-difluoro-benzoyl]-5-(2-fluoro-4-pyridyl)-1H-pyrrolo[2,3-b]pyridine]

Continued, compound first:

Compound | IC50 [1] | IC50 (B-Raf V600E)
CC1(C)CCN(S(=O)(=O)Nc2cccc(C(=O)c3c[nH]c4ncc(-c5cnc(C6CC6)nc5)cc34)c2F)C1 [Compound P-0246, N-[3-[5-(2-cyclopropylpyrimidin-5-yl)-1H-pyrrolo[2,3-b]pyridine-3-carbonyl]-2-fluoro-phenyl]-3,3-dimethyl-pyrrolidine-1-sulfonamide] | > 1 µM | < 0.1 µM
COCCS(=O)(=O)Nc1cccc(C(=O)c2c[nH]c3ncc(-c4cnc(OC)nc4)cc23)c1F [Compound P-0065, N-[2-fluoro-3-[5-(2-methoxypyrimidin-5-yl)-1H-pyrrolo[2,3-b]pyridine-3-carbonyl]phenyl]-2-methoxy-ethanesulfonamide] | > 1 µM | < 0.1 µM
CN(C1CC1)S(=O)(=O)Nc1cccc(C(=O)c2c[nH]c3ncc(-c4cnc(C5CC5)nc4)cc23)c1F [Compound P-0249, 3-[3-[[cyclopropyl(methyl)sulfamoyl]amino]-2-fluoro-benzoyl]-5-(2-cyclopropylpyrimidin-5-yl)-1H-pyrrolo[2,3-b]pyridine] | < 1 µM | < 0.1 µM
CCC(C)S(=O)(=O)Nc1cccc(C(=O)c2c[nH]c3ncc(-c4cnc(N5CCCC5)nc4)cc23)c1F (stereo not drawn) [Compound P-0225, N-[2-fluoro-3-[5-(2-pyrrolidin-1-ylpyrimidin-5-yl)-1H-pyrrolo[2,3-b]pyridine-3-carbonyl]phenyl]butane-2-sulfonamide] | < 1 µM | < 0.1 µM
O=C(c1cccc(NS(=O)(=O)N2CCCC2)c1F)c1c[nH]c2ncc(-c3ccc(C4(C(=O)O)CC4)cc3)cc12 [Compound P-0243, 1-[4-[3-[2-fluoro-3-(pyrrolidin-1-ylsulfonylamino)benzoyl]-1H-pyrrolo[2,3-b]pyridin-5-yl]phenyl]cyclopropanecarboxylic acid] | > 1 µM | < 0.1 µM
CCC(C)S(=O)(=O)Nc1cccc(C(=O)c2c[nH]c3ncc(-c4ccc(C5(C#N)CC5)cc4)cc23)c1F (stereo not drawn) [Compound P-0227, N-[3-[5-[4-(1-cyanocyclopropyl)phenyl]-1H-pyrrolo[2,3-b]pyridine-3-carbonyl]-2-fluoro-phenyl]butane-2-sulfonamide] | < 1 µM | < 0.1 µM
COCCN(C)S(=O)(=O)Nc1cccc(C(=O)c2c[nH]c3ncc(-c4cnc(NC5CC5)nc4)cc23)c1F [Compound P-0081, 5-[2-(cyclopropylamino)pyrimidin-5-yl]-3-[2-fluoro-3-[[2-methoxyethyl(methyl)sulfamoyl]amino]benzoyl]-1H-pyrrolo[2,3-b]pyridine] | < 1 µM | < 0.1 µM
CC(C)NS(=O)(=O)Nc1cccc(C(=O)c2c[nH]c3ncc(I)cc23)c1F [Compound P-0071, [2-fluoro-3-(isopropylsulfamoylamino)phenyl]-(5-iodo-1H-pyrrolo[2,3-b]pyridin-3-yl)methanone] | > 1 µM | > 0.1 µM
CN(CC1CC1)S(=O)(=O)Nc1cccc(C(=O)c2c[nH]c3ncc(-c4ccc(C5CC5)nc4)cc23)c1F [Compound P-0115, 3-[3-[[cyclopropylmethyl(methyl)sulfamoyl]amino]-2-fluoro-benzoyl]-5-(6-cyclopropyl-3-pyridyl)-1H-pyrrolo[2,3-b]pyridine] | < 1 µM | < 0.1 µM
COCCN(C)S(=O)(=O)Nc1cccc(C(=O)c2c[nH]c3ncc(-c4cnc(OC)nc4)cc23)c1F [Compound P-0073, 3-[2-fluoro-3-[[2-methoxyethyl(methyl)sulfamoyl]amino]benzoyl]-5-(2-methoxypyrimidin-5-yl)-1H-pyrrolo[2,3-b]pyridine] | > 1 µM | > 0.1 µM
CCN(C)S(=O)(=O)Nc1cccc(C(=O)c2c[nH]c3ncc(-c4cnc(NC5CC5)nc4)cc23)c1F [Compound P-0077, 5-[2-(cyclopropylamino)pyrimidin-5-yl]-3-[3-[[ethyl(methyl)sulfamoyl]amino]-2-fluoro-benzoyl]-1H-pyrrolo[2,3-b]pyridine] | < 1 µM | < 0.1 µM
CN(C1CC1)S(=O)(=O)Nc1ccc(F)c(C(=O)c2c[nH]c3ncc(-c4cnc(C5CC5)nc4)cc23)c1F [Compound P-0252, 3-[3-[[cyclopropyl(methyl)sulfamoyl]amino]-2,6-difluoro-benzoyl]-5-(2-cyclopropylpyrimidin-5-yl)-1H-pyrrolo[2,3-b]pyridine] | < 1 µM | < 0.1 µM
CN(C)S(=O)(=O)Nc1ccc(F)c(C(=O)c2c[nH]c3ncc(-c4cnc(C5CC5)nc4)cc23)c1F [Compound P-0238, 5-(2-cyclopropylpyrimidin-5-yl)-3-[3-(dimethylsulfamoylamino)-2,6-difluoro-benzoyl]-1H-pyrrolo[2,3-b]pyridine] | < 1 µM | < 0.1 µM
CCN(C)S(=O)(=O)Nc1ccc(F)c(C(=O)c2c[nH]c3ncc(-c4cnc(C5CC5)nc4)cc23)c1F [Compound P-0240, 5-(2-cyclopropylpyrimidin-5-yl)-3-[3-[[ethyl(methyl)sulfamoyl]amino]-2,6-difluoro-benzoyl]-1H-pyrrolo[2,3-b]pyridine] | < 1 µM | < 0.1 µM
N#Cc1ccc(-c2cnc3[nH]cc(C(=O)c4cccc(NS(=O)(=O)N5CCCC5)c4F)c3c2)cc1 [Compound P-0090, N-[3-[5-(4-cyanophenyl)-1H-pyrrolo[2,3-b]pyridine-3-carbonyl]-2-fluoro-phenyl]pyrrolidine-1-sulfonamide] | < 1 µM | < 0.1 µM
